Results taken from ChEMBL document CHEMBL3885861, “Open TG-GATES”.

Species on record: Rattus norvegicus
Experiment: Open TG-GATES - Regimen: Daily Repeat
Format: toxicity, organism-based, Sprague-Dawley
Set-up: regimen Daily Repeat, gender Male, age 6 weeks
Details: in vivo, po, route gavage; for Bas / Eos / Fbg / Ht / Lym / MCHC / MCV / Mono / PT / Plat / RBC / Ret / WBC / Neu: tissue Blood; for KIDNEY_L / KIDNEY_R / KIDNEY_TOTAL: tissue Kidney; for ALT / AST / CRE / Ca / DBIL / GLC / IP / K / LDH / Na / PL / RALB / TBIL / TC / TG / TP / gamma-GTP / BUN / Cl: tissue Plasma
[1] = 0 mg/kg, 72 h, dose level Control, time 3 day
[2] = 0 mg/kg, […], dose level Control, time 7 day
[3] = 0 mg/kg, […], dose level Control, time 14 day
[4] = 0 mg/kg, […], dose level Control, time 28 day
[5] = 80 mg/kg, 72 h, dose level Low, time 3 day
[6] = 80 mg/kg, […], dose level Low, time 7 day
[7] = 80 mg/kg, […], dose level Low, time 14 day
[8] = 80 mg/kg, […], dose level Low, time 28 day

## COc1ccc([C@@H]2Sc3ccccc3N(CCN(C)C)C(=O)[C@@H]2OC(C)=O)cc1 [DILTIAZEM]
[1]
  TERMINAL_BW: 215.4 g
  Bas: 0.2%
  Eos: 1%
  Fbg: 262.2 mg/dL
  Ht: 41.3%
  Lym: 74.6%
  MCHC: 32.7%
  MCV: 67.4 fL
  Mono: 3.4%
  PT: 14.3 s
  Plat: 126.4 x10_4/uL
  RBC: 613.4 x10_4/ul
  Ret: 8.9%
  WBC: 101.8 x10_2/uL
  KIDNEY_L: 1 g
  KIDNEY_R: 1 g
  KIDNEY_TOTAL: 1.9 g
  ALT: 45.8 IU/L
  AST: 76.8 IU/L
  CRE: 0.2 mg/dL
  Ca: 11.2 mg/dL
  DBIL: 0.016 mg/dL
  GLC: 177.4 mg/dL
  IP: 7.6 mg/dL
  K: 4 meq/L
  LDH: 97 IU/L
  Na: 143.8 meq/L
  PL: 151.2 mg/dL
  RALB: 2.7 g/dL
  TBIL: 0.032 mg/dL
  TC: 79.6 mg/dL
  TG: 86 mg/dL
  TP: 5.5 g/dL
  gamma-GTP: 1.2 IU/L
[2]
  TERMINAL_BW: 250.6 g
  Bas: 0%
  Eos: 0.8%
  Fbg: 297.6 mg/dL
  Ht: 41.8%
  Lym: 77%
  MCHC: 33.1%
  MCV: 64.6 fL
  Mono: 2.8%
  Neu: 18.4%
  PT: 14.2 s
  Plat: 137.2 x10_4/uL
  RBC: 648 x10_4/ul
  Ret: 6.7%
  WBC: 91.7 x10_2/uL
  KIDNEY_L: 1.1 g
  KIDNEY_R: 1 g
  KIDNEY_TOTAL: 2.1 g
  ALT: 45.4 IU/L
  AST: 72.6 IU/L
  BUN: 14.8 mg/dL
  CRE: 0.2 mg/dL
  Ca: 11.1 mg/dL
  Cl: 106.4 meq/L
  DBIL: 0.014 mg/dL
  GLC: 187.8 mg/dL
  IP: 7.6 mg/dL
  K: 4.3 meq/L
  LDH: 84 IU/L
  Na: 143.8 meq/L
  PL: 162.4 mg/dL
  RALB: 2.8 g/dL
  TBIL: 0.018 mg/dL
  TC: 82.8 mg/dL
  TG: 112.6 mg/dL
  TP: 5.8 g/dL
  gamma-GTP: 1 IU/L
[3]
  TERMINAL_BW: 321.8 g
  Bas: 0.4%
  Eos: 0.6%
  Fbg: 290.8 mg/dL
  Ht: 44%
  Lym: 82.2%
  MCHC: 33.2%
  MCV: 62.3 fL
  Mono: 2.2%
  Neu: 14%
  PT: 14.1 s
  Plat: 141.2 x10_4/uL
  RBC: 706.2 x10_4/ul
  Ret: 5.2%
  KIDNEY_L: 1.3 g
  KIDNEY_R: 1.3 g
  KIDNEY_TOTAL: 2.6 g
  ALT: 39 IU/L
  AST: 65.6 IU/L
  BUN: 16 mg/dL
  CRE: 0.2 mg/dL
  Ca: 10.8 mg/dL
  Cl: 105.6 meq/L
  DBIL: 0.018 mg/dL
  GLC: 189 mg/dL
  IP: 6.9 mg/dL
  K: 4.1 meq/L
  LDH: 92.8 IU/L
  Na: 144 meq/L
  PL: 160.4 mg/dL
  RALB: 2.8 g/dL
  TBIL: 0.02 mg/dL
  TC: 71.2 mg/dL
  TG: 180.4 mg/dL
  TP: 5.8 g/dL
  gamma-GTP: 1 IU/L
[4]
  TERMINAL_BW: 411.3 g
  Bas: 0.4%
  Eos: 1%
  Fbg: 302.8 mg/dL
  Ht: 45.8%
  Lym: 77%
  MCHC: 34.1%
  MCV: 57.2 fL
  Mono: 2.4%
  Neu: 18.8%
  PT: 14 s
  Plat: 112.6 x10_4/uL
  RBC: 801.4 x10_4/ul
  Ret: 2.5%
  WBC: 99.4 x10_2/uL
  KIDNEY_L: 1.5 g
  KIDNEY_R: 1.5 g
  KIDNEY_TOTAL: 3 g
  ALT: 37.2 IU/L
  AST: 66 IU/L
  BUN: 16.8 mg/dL
  CRE: 0.3 mg/dL
  Ca: 11.1 mg/dL
  Cl: 108 meq/L
  DBIL: 0.014 mg/dL
  GLC: 198.8 mg/dL
  IP: 6.8 mg/dL
  K: 3.7 meq/L
  LDH: 63.4 IU/L
  Na: 146.4 meq/L
  PL: 160.2 mg/dL
  RALB: 2.9 g/dL
  TBIL: 0.028 mg/dL
  TC: 79.4 mg/dL
  TG: 125.2 mg/dL
  TP: 6.2 g/dL
  gamma-GTP: 1.2 IU/L
[5]
  TERMINAL_BW: 214.1 g
  Bas: 0%
  Eos: 0.8%
  Fbg: 270 mg/dL
  Ht: 39.8%
  Lym: 72.2%
  MCHC: 32.8%
  MCV: 64.2 fL
  Mono: 2.8%
  Neu: 23.2%
  PT: 13.8 s
  Plat: 118.7 x10_4/uL
  RBC: 621.2 x10_4/ul
  Ret: 8.5%
  KIDNEY_L: 0.9 g
  KIDNEY_R: 1 g
  KIDNEY_TOTAL: 1.9 g
  ALT: 48.6 IU/L
  AST: 68.2 IU/L
  CRE: 0.2 mg/dL
  Ca: 11.1 mg/dL
  DBIL: 0.02 mg/dL
  GLC: 178 mg/dL
  IP: 7.4 mg/dL
  K: 4 meq/L
  LDH: 78.4 IU/L
  Na: 143.8 meq/L
  PL: 161.2 mg/dL
  RALB: 2.6 g/dL
  TBIL: 0.026 mg/dL
  TC: 86.4 mg/dL
  TG: 128.8 mg/dL
  TP: 5.5 g/dL
  gamma-GTP: 1.2 IU/L
[6]
  TERMINAL_BW: 255.5 g
  Bas: 0%
  Eos: 1%
  Fbg: 295 mg/dL
  Ht: 41.2%
  Lym: 77.4%
  MCHC: 33.2%
  MCV: 65.1 fL
  Mono: 2.6%
  Neu: 17.8%
  PT: 14.2 s
  Plat: 132.9 x10_4/uL
  RBC: 632 x10_4/ul
  Ret: 7.5%
  WBC: 77.3 x10_2/uL
  KIDNEY_L: 1.1 g
  KIDNEY_R: 1.1 g
  KIDNEY_TOTAL: 2.2 g
  ALT: 43.2 IU/L
  AST: 68.6 IU/L
  BUN: 15.4 mg/dL
  CRE: 0.2 mg/dL
  Ca: 11.2 mg/dL
  DBIL: 0.014 mg/dL
  GLC: 192.4 mg/dL
  IP: 8.3 mg/dL
  K: 4 meq/L
  LDH: 83.4 IU/L
  Na: 143.6 meq/L
  PL: 153.2 mg/dL
  RALB: 2.8 g/dL
  TBIL: 0.02 mg/dL
  TC: 81.2 mg/dL
  TG: 109.2 mg/dL
  TP: 5.8 g/dL
  gamma-GTP: 1 IU/L
[7]
  TERMINAL_BW: 315.7 g
  Bas: 0.4%
  Eos: 0.6%
  Fbg: 311.2 mg/dL
  Ht: 44.4%
  Lym: 80.2%
  MCHC: 32.9%
  MCV: 63.6 fL
  Mono: 2.4%
  PT: 13.8 s
  Plat: 139.6 x10_4/uL
  RBC: 698.8 x10_4/ul
  Ret: 5%
  WBC: 116 x10_2/uL
  KIDNEY_L: 1.3 g
  KIDNEY_R: 1.3 g
  KIDNEY_TOTAL: 2.6 g
  ALT: 45 IU/L
  AST: 70.4 IU/L
  BUN: 16.2 mg/dL
  CRE: 0.2 mg/dL
  Ca: 10.9 mg/dL
  Cl: 105.8 meq/L
  DBIL: 0.016 mg/dL
  GLC: 184.8 mg/dL
  IP: 7 mg/dL
  K: 4.2 meq/L
  LDH: 99.2 IU/L
  Na: 144.6 meq/L
  PL: 171.8 mg/dL
  RALB: 2.8 g/dL
  TBIL: 0.018 mg/dL
  TC: 81.8 mg/dL
  TG: 169.6 mg/dL
  TP: 6 g/dL
  gamma-GTP: 1.2 IU/L
[8]
  TERMINAL_BW: 415.5 g
  Bas: 0.2%
  Eos: 1.2%
  Fbg: 313.4 mg/dL
  Ht: 46.4%
  Lym: 77.4%
  MCHC: 33.9%
  MCV: 57.8 fL
  Mono: 2.2%
  Neu: 18.4%
  PT: 14 s
  Plat: 111.5 x10_4/uL
  RBC: 803.2 x10_4/ul
  Ret: 2.5%
  KIDNEY_L: 1.4 g
  KIDNEY_R: 1.4 g
  KIDNEY_TOTAL: 2.8 g
  ALT: 40.8 IU/L
  AST: 70.4 IU/L
  BUN: 17.6 mg/dL
  CRE: 0.2 mg/dL
  Ca: 11.1 mg/dL
  Cl: 108.4 meq/L
  DBIL: 0.016 mg/dL
  GLC: 202.8 mg/dL
  IP: 6.6 mg/dL
  K: 3.8 meq/L
  LDH: 65 IU/L
  Na: 146.6 meq/L
  PL: 161.8 mg/dL
  RALB: 2.9 g/dL
  TBIL: 0.016 mg/dL
  TC: 79.2 mg/dL
  TG: 147.4 mg/dL
  TP: 6.5 g/dL
  gamma-GTP: 1 IU/L
240 mg/kg, 72 h, dose level Middle, time 3 day
  TERMINAL_BW: 216.9 g
